Laboratory results as given in patent US10136641B2, “Methods for increasing tolerance to abiotic stress in plants” (Crop Microclimate Management Inc., priority 2010, dated 2018).

Columns and labels:
Format in all cases: in vivo
tomatoes = test: Tomato pot study with sebacic acid (high heat, light and water stress)
Protocol: A tomato pot study was conducted with sebacic acid to determine the activity of sebacic acid in increasing tolerance to abiotic stress. The tomatoes were grown in a standard medium in pots and subjected to the abiotic stresses of high heat, light, and water stress. Growth of the plants was used as a measure of the ability of the sebacic acid to reduce the impact of abiotic stress. Growth measurements were taken 32 days after treatment with sebacic acid

Tomato plants = test: Tomato pot trial, heat and light stress in the greenhouse; settings: for Avg. growth in cm. (tomato fruits exposed to heat and light stress): April 2-May 10; for Avg growth in cm. (tomato fruits exposed to heat and light stress): April 2-May 18
Protocol: Tomato plants were exposed to heat and light stress in the greenhouse. Control plants had no treatment or were treated with Screen, Screen Plus1, Screen Plus2, or Screen Plus3, The experimental plants were treated with azelaic acid at 10^−4 M or 10^−3 M applied alone or in combination with Screen, Screen Plus1, Screen Plus2, or Screen Plus3.

wine grape = test: Wine grape field trial (sunburn/heat stress, yield), Kialla, Victoria
Protocol: (§1) Field trials were carried out in parts of commercial orchards or fields in Australia during the 2009-2010 season. Crops were evaluated for specific parameters impacted by abiotic stress including fruit diameter, fruit number, amount of sunburn damage and number of flowers aborted. The crops evaluated were apple, citrus, tomato and wine grape. […] Heat and light stress occurred early during the trials, with exposures to 40° C.^+ temperatures in November; about 4-6 weeks after the trials were initiated. This period of stress was followed by varied temperatures including temperatures that were in the mid-to-high 30° C. range.
(§2) The foliage and fruit for each crop were assessed prior to treatment and then at regular intervals through the season for any signs of phytotoxicity. No phytotoxicity was observed on either the foliage or the fruit for any of the applied formulations for any of the crops. In addition, all trials were determined to be disease and pest free.
(§3) Screen (kaolin), Screen Duo (kaolin and salicylate), Surround (kaolin) and Parasol (calcium carbonate) are standard treatments used in the management of heat, light and water stress. Kaolin and calcium carbonate reduce stress by reflecting UV, visible, and infrared radiation, thereby reducing the impact of excess heat and light on photosynthesis and other cellular processes.
The trial described below was conducted in Kialla, Victoria, Australia. The trial design was a randomized complete block with four replicates. Each plot comprises one panel of vines having four vines. For yield measurements the grapes were harvested from each of the two center vines in each panel and bunch numbers and weights were recorded. For assessment of sunburn/heat stress damage, the bunches of grapes were rated according to the following system: […]

tomato = test: Tomato field trial (flower abortion, sunburn, yield), Echuca, Victoria
Protocol: as §1
The foliage and fruit for each crop were assessed prior to treatment and then at regular intervals through the season for any signs of phytotoxicity.
Kaolin and calcium carbonate reduce stress by reflecting UV, visible, and infrared radiation, thereby reducing the impact of excess heat and light on photosynthesis and other cellular processes.
(§4) The citrus and apple trials received four and five applications, respectively, of the various formulations, set forth in Table 1 (below), prior to experiencing abiotic stress. Tomatoes received biweekly applications of the treatments throughout the trial.
Flower abortion in tomato results in significant yield losses in tomato and begins at temperatures of 28 C, becoming more severe as temperatures rise. Further, once fruit has developed, it is susceptible to damage from heat and light, expressed as sunburn.
In the present study, tomatoes, located in a commercial field outside Echuca, Victoria, Australia, were treated with azeleic acid (CMM2009A). The number of aborted flowers per plot was assessed periodically during the season. Tomato yield and sunburn damage was assessed as follows. Tomatoes from the center of each plot were harvested from a one meter section of the tomato beds. The fruit was visually assessed as being either red in color and suitable for processing, green in color, or sun burnt. The fruit from these three categories were kept separate, weighed and recorded.

apple = test: Apple field trial (heat, light and/or water stress), Shepparton, Victoria
Protocol: as §1, §2, §3, §4
As described above for citrus, early season heat, light and/or water stress can also impede cell division that occurs during Phase I of fruit development of apples. In the apple trial, which was conducted in Shepparton, Victoria, Australia, the load of fruit on each of the trees was thinned to an approximately equal value (approximately 200 fruit per tree; +/−5%), thus eliminating the confounding effect of fruit load on fruit diameter. To assess sunburn/heat stress damage, all apples were harvested from the center tree in each plot and rated according to the following rating system.
Rating Visual Assessment of the Fruit
1 Slight yellowing on the exposed side (<5% of the fruit area)
2 Noticeable yellowing on the exposed side (>5% of the fruit area)
3 Moderate sunburn with pronounced lenticels (fruit unmarketable)
4 Significant sunburn (fruit unmarketable)

citrus = test: Citrus field trial (heat, light and/or water stress), Cobram, Victoria
Protocol: as §1, §2, §3, §4
In general, a lower fruit load results in greater fruit diameter at harvest. Early season differences in fruit diameter are due to variation in cell division. It is well documented that at equal fruit load, heat stress will result in smaller fruit (i.e., reduced fruit diameter). In addition, heat, light, and/or water stress can also result in fruit number losses, commonly known in citrus as “June drop.” Past studies indicate that protecting the crop with Screen/Duo starting at petal fall can result in larger fruit and higher numbers of fruit, most likely by reducing the crop temperature and reducing stress signaling reactive oxygen (ROX).
The trial described below was conducted in Cobram, Victoria, Australia. Several parameters were measured as responses to heat, light and/or water stress: early citrus fruit diameter, number of fruit per cubic meter foliage, percent sunburn, later season fruit diameter and kilograms of fruit per cubic meter foliage. Sunburn damage is the late stage result of combined heat and light stress. […] There was little correlation observed between fruit number and fruit size (correlation […]).

[1] = azelaic at 10^−4M where applied, Screen applications at rate equivalent of 25 kg/ha
[2] = wine grape field trial, 10 Mar. 2010, four applications
[3] = apple field trial, rates per Table 3
[4] = citrus, versus standard treatments

In the case of sebacic acid (decanedioic acid), the “Growth (mm)” value (tomatoes; tomato plants in pots, 1 × 10−4M, 32 days after treatment, high heat, light and water stress) is reported as 25.3 mm and the “Growth compared with the untreated plants (in words)” value (tomatoes; tomato pot trial, Table 7) is reported as “statistically significant greater growth”.
With O=C(O)CCCCCCCC(=O)O [Azeleic acid, azelaic acid (nonanedioic acid)] the “Avg. growth in cm. (tomato fruits exposed to heat and light stress)” value (Tomato plants; azelaic at 10^−3M, no Screen) was 8.0 cm, the “Avg. growth in cm. (tomato fruits exposed to heat and light stress)” value (Tomato plants; [1]) was 11.0 cm and the “Avg growth in cm. (tomato fruits exposed to heat and light stress)” value (Tomato plants; azelaic at 10^−3M, no Screen) was 6.1 cm. The “Avg growth in cm. (tomato fruits exposed to heat and light stress)” value (Tomato plants; [1]) was 8.7 cm, the “Protection from the abiotic stress as measured by average fruit size (in words)” value (Tomato plants; tomato pot trial, azelaic acid at 10^−4 M) was “equivalent to or better than the standard treatments” and the “Bunch Weight (grams)” value (wine grape; wine grape field trial, 10 Mar. 2010, average weight of a bunch, four applications) was 94.7 grams. The Yield kg/ha (wine grape; [2]) was 9230 kg/ha, the Yield kg/vine (wine grape; [2]) was 3.6 kg/vine and the “% Bunches Rating 1 + 2” value (wine grape; wine grape field trial, 10 Mar. 2010, rating 1 = 0%, 2 = 1-5% incidence of sunburn/heat stress on bunches, four applications, rates per Table 6) was 96.8%. For the same compound, the “Protection from heat, water and light stress (bunch rating, yield, bunch weight; in words)” value (wine grape; wine grape, alone or in combination with salicylate, kaolin, or combinations thereof) was “equivalent to or better than the standard treatments”, the “Yield Red MT/ha” value (tomato; 12 Mar. 2010, red fruit suitable for processing, ten applications) was 131 MT/ha and the “Yield Sunburn MT/ha” value (tomato; 12 Mar. 2010, sun burnt fruit, ten applications) was 6.6 MT/ha. The “Soluble Solids MT/ha” value (tomato; 12 Mar. 2010, ten applications) was 6.2 MT/ha, the “Total Yield MT/ha” value (tomato; 12 Mar. 2010, ten applications) was 137.6 MT/ha and the “Number Sunburn Fruit per plot” value (tomato; 20 Feb. 2010, ten applications, rates per Table 4) was 21.3 per plot. For the same compound, the “Aborted Flowers per sq m of the plot” value (tomato; 20 Jan. 2010, ten applications, rates per Table 4) was 5 per sq m of the plot, the “Protection from sunburn damage (in words)” value (tomato; alone or in combination with salicylate, kaolin, glycine betaine) was “equivalent to or better than the standard treatments” and the “Number of flowers aborted (in words)” value (tomato; versus standard treatments) was “reduce the number of flowers aborted to the same degree as the standard treatments”. The “Fruit Diameter (mm)” value (apple; apple field trial, 12 Dec. 2010, fruit load thinned to approx. 200 fruit per tree, rates per Table 3) was 39.84 mm, the “% Fruit Sunburn 1&2” value (apple; apple field trial, 16 Feb. 2010, 1&2 are export grade or commercially acceptable grade apples, rates per Table 3) was 87.4% and the Yield kg/tree (apple; apple field trial, 17 Mar. 2010, rates per Table 3) was 42.8 kg/tree. For the same compound, the “Apple Size g/apple” value (apple; [3]) was 152 g/apple, the “Marketable Yield kg/tree” value (apple; [3]) was 37.4 kg/tree and the “Protecting cell division as measured by fruit diameter, percent sunburn, apple size, yield and marketable yield (in words)” value (apple; apple, alone or in combination with kaolin, salicylate, glycine betaine, or multiples thereof) was “as effective as the standard treatments”. The “Fruit Number per cubic meter” value (citrus; citrus field trial, 6 Jan. 2010, per cubic meter foliage, four applications, rates per Table 2) was 10.62 per cubic meter, the “Fruit Diameter (mm)” value (citrus; citrus field trial, 12 Apr. 2010 (later season), four applications, rates per Table 2) was 71.59 mm and the “Fruit Diameter (mm)” value (citrus; citrus field trial, 14 Dec. 2010 (early fruit diameter), four applications, rates per Rate column of Table 2) was 29.49 mm. For the same compound, the “Percent Sunburn” value (citrus; citrus field trial, 28 Jan. 2010, four applications, rates per Table 2) was 5.6%, the “kgs/cubic meter of foliage” value (citrus; citrus field trial, 29 Sep. 2010, kilograms of fruit, four applications, rates per Table 2) was 3.8 kgs/cubic meter of foliage and the “Protecting cell division, as measured by early fruit diameter (in words)” value (citrus; citrus, azelaic acid alone versus Screen, Screen Duo, Surround and Parasol) was “as effective as the standard treatments”. For the same compound, the “Protection from sunburn damage (in words)” value (citrus; [4]) was “equal to that obtained using the standard treatments” and the “Reducing fruit loss (in words)” value (citrus; [4]) was “as effective in reducing fruit loss”.
